Experimental data: US20200277373A1, “ANTI-TREM2 ANTIBODIES AND METHODS OF USE THEREOF” (Denali Therapeutics Inc., priority 2017, published 2020)

Experiments:
Format in all cases: cell-based
R47H TREM2 mutant = target: T1, R47H TREM2 mutant (Homo sapiens, UniProt Q9NZC2, R47H); test: Liposome stimulation pSyk AlphaLISA, HEK293 overexpressing TREM2-R47H and DAP12; conditions: liposomes 30% lipid/70% PC (KLA 10%/90%), fold change over HBSS
T1 construct: expressed in transfected cells
Experimental: (§1) Lipids were purchased from Avanti Polar Lipids (Alabaster, Ala.) or Echelon Biosciences (Salt Lake City, Utah). Each screened lipid was resuspended in chloroform and added at 30 mole percent composition to 70 mole percent phosphatidylcholine (PC; 1,2-dioleoyl-sn-glycero-3-phosphocholine, Avanti Polar Lipids). Kdo2-Lipid A was added at a 10 mole percent composition with 90 mole percent PC. Lipid mixes were dried under nitrogen gas and resuspended in HBSS at a concentration of 4 mg/mL. Mixes were vortexed or briefly sonicated until resuspended, then bath sonicated for 1-5 minutes. Liposomes were used for 1-2 weeks. 3 independent batches of liposomes were used in experiments.
(§2) HEK293 cell lines overexpressing TREM2 and DAP12, mutant TREM2-R47H and DAP12, or DAP12 alone were plated in 96-well PDL-coated plates at a density of 40,000 cells per well and cultured for 36-48 hours until 90-100% confluent.
(§3) Cell culture medium was removed and cells were washed once with 200ul HBSS. Liposomes were diluted in HBSS in concentrations ranging from 0.03125 mg/mL to 2 mg/mL, then 50 μl was added to wells in 2-3 technical replicates per plate. Each plate contained HBSS negative control wells, 100% PC liposome control, 5 μg/mL agonist anti-TREM2 positive control (Abnova; Taiwan; # MAB2056), and 5 μg/mL mouse IgG3 isotype control (R&D Systems; Minneapolis, Minn.; # MAB007). Stimuli were incubated with cells for 5 minutes at 37° C., 5% CO2, liposomes were removed, and plates were frozen at −80° C.
(§4) Cells were lysed for 30 minutes to 1 hour on ice in 50 ul/well Cell Lysis Buffer (Cell Signaling Technology; Danvers, Mass.; #9803) with 1 mM PMSF. AlphaLISA SureFire Ultra p-Syk Tyr525/526 assay kit (PerkinElmer, ALSU-PSYK-A10OK) was used to measure pSyk levels in lysate as per manufacturer protocol. 10 μl lysate was added to 384-well OptiPlates (PerkinElmer; #6007290) and an EnVision Multilabel Plate Reader (PerkinElmer) was used to measure AlphaLISA fluorescence.
(§5) PSyk AlphaLISA fluorescence was converted to a log 2 scale. Fluorescence values from liposomes and controls were each subtracted from average fluorescence values from HBSS stimulated wells on the same plate (log 2(liposome)−log 2(HBSSave)=log 2(signal)). The result was converted back to a standard scale to measure fold change (2^log 2(signal)=fold change). Technical replicate fold changes values were averaged to obtain the fold change over background listed (pSyk FOB). Graphs represent values from independent experiments or individual human donors. Results from the screen on the HEK293 overexpressing cell lines are shown in Table 9 below and in FIG. 8A-8B. HEK293 results showing specificity for TREM2 over DAP12 expressed alone can be used to extrapolate which lipid species are likely acting as TREM2 ligands on human macrophages.

DAP12 alone = target: T2, DAP12 alone (Homo sapiens, UniProt O43914); test: Liposome stimulation pSyk AlphaLISA, HEK293 expressing DAP12 alone; conditions: liposomes 30% lipid/70% PC (KLA 10%/90%), fold change over HBSS
T2 construct: expressed in transfected cells
T2 sequence (O43914 22-113): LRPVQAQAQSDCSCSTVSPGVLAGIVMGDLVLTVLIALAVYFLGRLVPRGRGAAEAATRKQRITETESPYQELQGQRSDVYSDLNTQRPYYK
Experimental: as §1, §2, §3, §4, §5

TREM2 = target: T3, TREM2 (Homo sapiens, UniProt Q9NZC2); test: Liposome stimulation pSyk AlphaLISA, HEK293 overexpressing TREM2 and DAP12; conditions: liposomes 30% lipid/70% PC (KLA 10%/90%), fold change over HBSS
T3 construct: expressed in transfected cells
T3 sequence (Q9NZC2 19-230): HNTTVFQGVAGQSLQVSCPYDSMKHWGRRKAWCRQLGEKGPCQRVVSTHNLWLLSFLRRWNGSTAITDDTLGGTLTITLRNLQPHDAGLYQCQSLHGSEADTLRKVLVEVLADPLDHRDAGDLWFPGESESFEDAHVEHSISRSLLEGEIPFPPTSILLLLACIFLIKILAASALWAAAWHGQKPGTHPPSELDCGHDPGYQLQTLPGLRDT
T3 sequence (O43914 22-113 partner): as the sequence (O43914 22-113) above
Experimental: as §1, §2, §3, §4, §5

[1] = test system: primary human macrophages; test: Liposome stimulation pSyk AlphaLISA, primary human macrophages; conditions: liposomes 30% lipid/70% PC (KLA 10%/90%)
Experimental: as §1
10 mL human blood was obtained from Blood Centers of the Pacific. Monocytes were extracted using RosetteSep Human Monocyte Enrichment Cocktail ([…] Technologies Inc.; Vancouver, BC; #15068) as per manufacturer protocols. Density gradient was performed with Ficoll-Paque Premium (GE Healthcare Life Sciences; Pittsburgh, Pa.; #17-5442-02). Isolated monocytes were resuspended at ˜1-1.3 million cells/mL and cultured for 5-6 days in RPMI, 10% Hyclone Fetal Bovine Serum, and penicillin/streptomycin supplemented with 50 ng/mL human M-CSF (Gibco, # PHC9501) in T175 tissue culture treated flasks. M-CSF was replenished every 2-3 days. Cells were washed once with PBS, 15 mL fresh medium was added, and cells were harvested by scraping. Cells were cultured overnight at a density of 100,000 cells per well on tissue culture treated 96-well plates supplemented with 10-25 ng/mL M-CSF.
as §3, §4, §5

T1 sequence (Q9NZC2 19-230 R47H): as the sequence (Q9NZC2 19-230) above, with R29H counted along it
T1 sequence (O43914 22-113 partner): as the sequence (O43914 22-113) above

Molecule | R47H TREM2 mutant (pSyk FOB) (R47H TREM2 mutant) [FOB] | DAP12 alone (pSyk FOB) (DAP12 alone) [FOB] | Human TREM2 (pSyk FOB) (TREM2) [FOB] | pSyk FOB [1] [FOB]
Phosphatidylinositol [Phosphatidylinositol (PI)] | 2.27 | 1.04 | 4.31 | 2.09
Ganglioside GM1 | 4.93 | 0.92 | 4.94 | 1.52
Diacylglycerol 38:4 [Diacylglycerol 38:4 (DG 38:4)] | 0.73 | 0.64 | 1.05 | 
CCCCC/C=C\C/C=C\C/C=C\C/C=C\CCCC(=O)OC(CO)CO [2-Arachidonoylglycerol (2-AG), 2-Arachidonoylglycerol] | 0.84 | 1.11 | 0.68 | 1.23
CC(C)[C@@H](O)CC[C@@H](C)[C@H]1CC[C@H]2[C@@H]3CC=C4C[C@@H](O)CC[C@]4(C)[C@H]3CC[C@]12C [24(S)hydroxycholesterol (24OHC), 24(S)hydroxycholesterol] | 8.44 | 1.57 | 4.50 | 1.56
CCCCCCCCCCCCC/C=C/[C@@H](O)[C@@H](N)COP(=O)(O)O [Sphingosine-1-phosphate (SolP), Sphingosine-1-phosphate] | 3.94 | 1.64 | 2.42 | 2.10
CCCCCCCC(=O)OC[C@H](COP(=O)(O)OP(=O)(O)O)OC(=O)CCCCCCC [Diacylglycerol pyrophosphate (DGPP), Diacylglycerol pyrophosphate] | 3.70 | 1.16 | 3.42 | 1.61
lysoalkylacylglycerophosphocholine | 1.46 | 0.67 | 1.81 | 
Lysophosphatidylinositol [Lysophosphatidylinositol (LPI)] | 0.32 | 1.03 | 1.12 | 1.61
Phosphatidylserine [Phosphatidylserine (PS)] | 2.65 | 1.27 | 2.42 | 2.09
alkylacylglycerophosphocholine [alkylacylglycerophosphocholine (PAF)] | 1.41 | 0.69 | 1.58 | 
C[C@H](CCCC(C)(C)O)[C@H]1CC[C@H]2[C@@H]3CC=C4C[C@@H](O)CC[C@]4(C)[C@H]3CC[C@]12C [25(S)hydroxycholesterol (25OHC), 25(S)hydroxycholesterol] | 6.27 | 1.20 | 2.61 | 1.14
CCCCCCCCCCCCC/C=C/[C@@H](O)[C@@H](N)CO [Sphingosine] | 0.85 | 1.32 | 0.67 | 0.96
Phosphatidic acid [Phosphatidic acid (PA)] | 2.72 | 1.48 | 2.17 | 2.17
CCCCCCCCCCCCCCCC(=O)OC[C@H](COP(=O)([O-])OCC[N+](C)(C)C)OC(=O)CCCC=O [1-palmitoyl-2-(5′-oxo-valeroyl)-sn-glycero-3-phosphocholine] | 1.57 | 1.34 | 0.86 | 
CCCCCCCCCCCCCCC[C@@H](O)[C@@H](N)COP(=O)(O)O [Sphinganine-1-phosphate (SalP), Sphinganine-1-phosphate] | 5.32 | 1.34 | 3.31 | 1.08
CCCCCCCCCCCCCCC[C@@H](O)[C@@H](N)CO [Sphinganine] | 1.39 | 1.26 | 0.76 | 
Diacylglycerol 34:1 [Diacylglycerol 34:1 (DG34:1)] | 0.68 | 0.68 | 1.20 | 
Lysophosphatidylcholine [Lysophosphatidylcholine (LPC)] | 1.47 | 1.14 | 1.26 | 
Glucosylceramide [Glucosylceramide (GlcCer)] |  |  |  | 1.58
CCCCCCCCCCCCC/C=C/[C@@H](O)[C@@H](N)CO[C@@H]1O[C@H](CO)[C@H](O)[C@H](O)[C@H]1O [Galactosylsphingosine (GalSo), Galactosylsphingosine] | 1.07 | 0.71 | 1.09 | 
Dihyrdoceramide [Dihyrdoceramide (DhCer)] | 1.47 | 0.84 | 1.22 | 
N-Acyl-phosphatidylethanolamine [N-Acyl-phosphatidylethanolamine (NAPE)] | 0.94 | 0.78 | 0.67 | 
CCCCCCCCCCCCCCCCCCCCCCCCCC(=O)N[C@@H](CO[C@H]1O[C@H](CO)[C@H](O)[C@H](O)[C@H]1O)[C@H](O)[C@H](O)CCCCCCCCCCCCCC [α-galactosylceramide (KRN7000), α-galactosylceramide] | 0.97 | 0.85 | 0.79 | 
Acyl Carnitine [Acyl Carnitine (AC)] | 1.83 | 1.55 | 1.17 | 
